Measured values: patent publication US9119805B2, “Therapy and prevention of problem drinking” (THE UNIVERSITY OF SYDNEY, priority 2009, dated 2015)
“Also recorded” adds a separate entry of the source.

Key:
Type in all cases: in vivo, rat
[1] = system: Male Wistar rats; assay: Emergence test of anxiety after oxytocin pre-treatment (Example 3)
Experimental: (§1) Male Wistar rats (n=48) were obtained from the Animal Resource Centre (ARC), Perth, Western Australia, Australia. The animals were of early adolescent age (i.e., 21 days-old) on arrival and were young adults (i.e., 33 days-old) when oxytocin therapy commenced. The animals were housed and maintained as described in the preceding examples, except that animals were moved to individual housing during chronic exposure to alcohol.
(§2) One-half of the rats (n=24) were administered 10 injections of 1 mg/kg oxytocin (1×I/P injection per day for a total of 10 days). The other half of the rats (n=24) received equivalent injections of placebo/vehicle lacking oxytocin.
(§3) At 7 days following final injection of oxytocin, all rats were tested in an emergence test of anxiety. This 5 min test measures the willingness of rats to leave a small dark hide box and emerge into a brightly lit open field. Rats normally avoid brightly lit and open spaces. Three days later, the animals were tested in social interaction tests which measure the willingness of rats to engage in social behavior during a 10 min session in a darkened arena where they meet an unknown rat that has received the same drug treatment.

[2] = system: P rats; assay: Lickometer alcohol preference in alcohol-naïve P rats pre-treated with 10 daily oxytocin injections (Example 2)
Experimental: P rats (8 female and 6 male P rats) of adult age (i.e., 150 days) were used in this study. Animals were maintained as described in example 1, however they received no alcohol prior to testing.
One-half of the rats (n=4 female and n=3 male) were given 10 injections of 1 mg/kg oxytocin (a single I/P injection per day for a total of 10 days). The other half of the rats received equivalent injections of placebo/vehicle lacking oxytocin. Two weeks later, the alcohol preferences of both sets of alcohol-naïve animals were tested. The same alcohol and alcohol-free solutions were employed as in example 1, and testing conditions were in the same lickometer apparatus. Testing in the lickometer (1×70 min session per day) continued for a total of 10 days during which time intake of sucrose and Vodka Cruiser were measured.

[3] = system: rats having established patterns of pathologically-high alcohol consumption; assay: Beer and water consumption in the 2.5 hr after a single oxytocin injection in alcohol-dependent animals (Example 4, FIG. 8); details: 2.5 hr following 1 mg/kg IP
Experimental: FIG. 8 provides graphical representations showing total consumption (ml) of full strength beer (panel A) and water (panel B) in rats having established patterns of pathologically-high alcohol consumption over several months, in a 2.5 hr period following intraperitoneal (IP) injection with 1 mg/kg oxytocin (OXY, n=8) or saline vehicle (VEH, n=8). […] Alcohol consumption in animals treated with oxytocin was reduced in the short-term by about 25% to about 40% or about 50% or about 60%. In contrast, consumption of water was unchanged in animals receiving oxytocin or saline vehicle placebo.
Alcohol-dependent animals were provided a single injection i/p of oxytocin (1 mg/kg body weight) and their alcohol consumption levels in the 2.5 hr period following therapy were determined.

[4] = system: Male Wistar rats; assay: Social interaction test after oxytocin pre-treatment (Example 3)
Experimental: as §1, §2, §3

[5] = system: Male Wistar rats; assay: Home-cage free access to 4.5% ethanol beer after oxytocin prophylaxis (Example 3, FIGS. 5-7)
Experimental: as §1, §2
A subset of the treated rats (n=8 per condition) were exposed to alcohol in the lickometer apparatus over a 10 day period. On the first day of testing, animals were exposed to a 70 min session in the lickometer during which a low-alcohol near-beer was provided at both lick tubes (Birell's Premium, containing 0.5% alcohol). On subsequent days, animals were exposed to further 70 min test sessions during which near-beer supplemented with increasing amounts of absolute ethanol were provided at both lick tubes i.e., to produce a beer comprising 1.5%, 2.5%, 3.5% and finally 4.5% ethanol. The concentration of ethanol was then maintained at 4.5% for all subsequent testing.
After 9 days of lickometer testing, the rats were given free access to 4.5% ethanol containing beer for a 24-day period in their home cages. Standard rat chow and tap water were also available in the home cages. Alcohol intakes and body weights were measured daily.

[6] = 10 x 1 mg/kg I/P, tested 7 days after final injection, versus vehicle
[7] = 10 minute social interaction test, versus vehicle
[8] = FIG. 6 panel A, start of exposure

Question: For CC[C@H](C)[C@@H]1NC(=O)[C@H](Cc2ccc(O)cc2)NC(=O)[C@@H](N)CSSC[C@@H](C(=O)N2CCC[C@H]2C(=O)N[C@@H](CC(C)C)C(=O)NCC(N)=O)NC(=O)[C@H](CC(N)=O)NC(=O)[C@H](CCC(N)=O)NC1=O [oxytocin], which “emergence from hide into brightly-lit open field” value [1, 6] is on record?
Answer: The value was “greater likelihood of emergence into the open field; also recorded: emerged more rapidly”.

Question: And the time hiding [1, 6]?
Answer: The time hiding was “reduced time hiding; also recorded: significantly less time hiding”.

Question: And the anxiety ([1]; relative to control rats)?
Answer: The anxiety was “reduced anxiety”.

Question: And the “alcohol intake and preference for alcohol” value ([2]; alcohol-naïve P rats, both sexes, repeated doses)?
Answer: The value was “reduced alcohol intake and preference for alcohol; also recorded: reduced significantly”.

Question: What about the “preference for Vodka Cruiser versus 3% sucrose solution” value ([2]; male alcohol-naïve P rats, 10 x 1 mg/kg/day, final 4 days of testing) of the same molecule?
Answer: The value was “significantly reduced preference for Cruiser over sucrose”.

Question: And the intake of sucrose ([2]; male oxytocin-treated rats relative to both female groups)?
Answer: The intake of sucrose was “higher”.

Question: What about the “intake of Cruiser (alcohol)” value ([2]; male oxytocin-treated rats versus the other groups) of the same molecule?
Answer: Its value is “less intake of alcohol; also recorded: lower”.

Question: And the “reduced acquisition of alcohol preference, comparison between the sexes” value ([2]; males compared to females)?
Answer: Its value is “greater in males compared to females”.

Question: What about the consumption of water [3] of the same molecule?
Answer: Its consumption of water is “unchanged; also recorded: not affected”.

Question: What about the “beer (alcohol) consumption” value ([3]; versus saline vehicle) of the same molecule?
Answer: The value was “significantly reduced beer consumption”.

Question: And the “number of social contacts” value [4, 7]?
Answer: Its value is “significantly higher numbers of social contacts; also recorded: increased numbers of social contacts”.

Question: What about the “proximal time (time within one and half body lengths of another rat)” value [4, 7] of the same molecule?
Answer: Its value is “significantly higher; also recorded: increased time spent in close proximity”.

Question: What about the social anxiety ([4]; test animals after oxytocin therapy) of the same molecule?
Answer: The social anxiety was “decreased social anxiety”.

Question: What about the “average daily intake of full strength beer” value ([5]; FIG. 5, final oxytocin injection about 30 days before exposure to alcohol, versus placebo) of the same molecule?
Answer: The value was “significantly reduced alcohol consumption; also recorded: consistently less alcohol intake”.

Question: What about the consumption of water ([5]; FIG. 6, same period) of the same molecule?
Answer: Its consumption of water is “did not significantly modify consumption of water; also recorded: unchanged”.

Question: And the “escalation of alcohol consumption / alcohol intake” value ([5]; FIG. 6, 10 daily IP injections ending about 21 days before 24 days beer exposure, versus saline vehicle)?
Answer: The value was “significantly reduced an escalation of alcohol consumption; also recorded: consistently less alcohol intake”.

Question: What about the “ethanol consumption after marginal increase” value ([5]; FIG. 6 panel A, over 24 days) of the same molecule?
Answer: The value was 10-10.8 g/kg of pure ethanol per day.

Question: And the initial beer consumption [5, 8]?
Answer: Its initial beer consumption is “about 110 ml of beer per day”.

Question: And the initial ethanol consumption [5, 8]?
Answer: Its initial ethanol consumption is “about 9 g/kg of pure ethanol per day”.

Question: And the “reduction of initial alcohol consumption” value ([5]; FIG. 6 panel A, versus animals without oxytocin)?
Answer: The value was “about 10%”.

Question: What about the “total consumption of full strength beer” value ([5]; FIG. 7 panel A, final week of the experiment, versus saline vehicle) of the same molecule?
Answer: Its value is “significantly reduced later consumption of alcohol”.

Question: What about the total water consumption ([5]; FIG. 7 panel B, final week) of the same molecule?
Answer: The total water consumption was “no significant difference in total water consumption”.

Question: And the “alcohol consumed with free access to full strength beer in home cages” value ([5]; FIGS. 5-7, versus placebo)?
Answer: The value was “consumed consistently less alcohol”.

Question: What about the “body weight and food intake” value ([5]; oxytocin pre-treated rats versus controls, FIG. 5 experiment) of the same molecule?
Answer: The value was “same body weight and food intake as controls”.

Question: And the general health ([5]; oxytocin pre-treated rats, FIG. 5 experiment)?
Answer: The general health was “appeared healthy”.
